# Reference: patent publication US12697325B2 (TENNOR THERAPEUTICS (SUZHOU) LIMITED, priority 2021, dated 2026)
# System: Acinetobacter baumannii clinical strains
# Assay: Information of drug resistance of 10 clinical strains
# Format: cell-based
# Set-up: key: S: Drug Susceptible; I: Drug Intermediate; R: Drug Resistant
Compound,Drug resistance (strain TNP041702),Drug resistance (strain TNP041703),Drug resistance (strain TNP041704),Drug resistance (strain TNP041705),Drug resistance (strain TNP041706),Drug resistance (strain TNP041707),Drug resistance (strain TNP041708),Drug resistance (strain TNP041709),Drug resistance (strain TNP041710),Drug resistance (strain TNP041711)
NCC[C@H](O)C(=O)N[C@@H]1C[C@H](N)[C@@H](O[C@H]2O[C@H](CN)[C@@H](O)[C@H](O)[C@H]2O)[C@H](O)[C@H]1O[C@H]1O[C@H](CO)[C@@H](O)[C@H](N)[C@H]1O [Amikacin],R,R,R,R,S,R,S,R,R,R
CO/N=C(\C(=O)N[C@@H]1C(=O)N2C(C(=O)O)=C(COC(C)=O)CS[C@H]12)c1csc(N)n1 [Cefotaxime],R,R,R,R,R,R,R,R,R,R
CCN1CCN(C(=O)N[C@@H](C(=O)N[C@@H]2C(=O)N3[C@@H]2SC(C)(C)[C@@H]3C(=O)O)c2ccccc2)C(=O)C1=O [Piperacillin],R,R,R,R,R,R,R,R,R,R
CO/N=C(\C(=O)N[C@@H]1C(=O)N2C(C(=O)[O-])=C(C[N+]3(C)CCCC3)CS[C@H]12)c1csc(N)n1 [Cefepime],R,R,R,R,R,R,R,R,R,R
C[C@@H](O)[C@H]1C(=O)N2C(C(=O)O)=C(SCCN=CN)C[C@H]12 [Imipenem],R,R,R,R,R,R,R,R,R,R
Gentamicin,R,R,R,R,S,R,R,R,R,R
